This is an account of results in patent US9719057B2, “Laundry detergent” (Liquid Vanity ApS, priority 2010, dated 2017).

Series [1] has as its system Escherichia coli, ATCC 11229. The series can be described thus: Biocidal effect, dosage response and synergy (reduction in CFU after exposure to biocide). The settings on record: 9 minutes at 30° C.; for Reduction obtained in E. coli: pH 6-6.5, factor of reduction in CFU. It is filed as cell-based. From the text:
(§1) The assay is based on the requirements to chemical disinfectants and antiseptic agent with regard to a reduction in fungus and bacteria of 4 and 5 log units respectively. These requirements are stated in DS/EN 1276:1997 and DS/EN 1275:2005, respectively.
(§2) The following microorganisms were chosen for this dosage response assays: Staphylococcus aureus, ATCC 6538, representing grampositive bacteria; Escherichia coli, ATCC 11229, representing gramnegative bacteria; and Candida albicans, ATCC 2091, representing yeast fungi.
(§3) The bacterial cultures were cultivated in the growth medium TSB (Tryptic Soy Bouillon) for 24 h at 37° C. before use. Colony forming units (CFU) were determined by plating Tryptic Soy Agar (TSA).
(§4) The exposure to biocide was performed at pH 6-6.5, which was obtained by addition of 100 mM potassium phosphate buffer. To test tubes with 8 mL sterile 100 mM phosphate buffer were added 1 mL test solution (i.e. biocide solution) and 1 mL stock culture. After thorough mixing the assay mixtures were exposed to heating in water bath at 30° C. for 9 minutes. After exposure the test tubes were immediately removed from the water bath and the surviving microorganisms were determined by plating.
(§5) Reference samples were prepared by adding 1 mL sterile water instead of 1 mL test solution.
(§6) From appropriate dilutions of starting material (mixture of biocide solution, stock culture and buffer) was taken 0.1 mL onto agar plates, and the material was spread with Drigalski spatulas. The plates were incubated at 37° C. 1 day for bacteria and 2 days for yeast.
(§7) For determining CFU of the bacteria after exposure, with and without biocide, was used incubation on TSA for 24 h at 37° C. For determining CFU of Candida albicans before and after exposure was used incubation on MEA for 48 h at 37° C.
(§8) Where a large reduction in organisms was expected (test concentrations of 700 and 200 ppm) 1 mL and 0.1 mL solution, respectively, were mixed with 100 ml sterile water and filtered through a 47 mm Millipore EZ-Pak® membrane filter, mesh 0.22 μm. The filter was rinsed with 100 mL sterile water, and thereafter placed directly on the agar plate. The mixing in water and subsequent rinsing ensures that the biocide is heavily diluted and thus will not have any effect after plating. For dilutions of 100× and more, regular plating were used, as the biocide at these concentrations is considered to not provide any further reduction in the microorganisms during plating on agar.
(§9) Plates with between 20 and 500 CFU were chosen for counting. Number of CFU (colony forming units) per g or mL sample was calculated by multiplying the number of colonies per plate with the dilution and further by 10, as only 0.1 mL was used on each plate.
(§10) After incubation, CFU was determined and reduction in organisms was calculated. All tests were performed in triplicate.
(§11) The optimal biocides, Bardap-26 and Akacid Forte, found in Example 4A, were further assayed for synergistically effect. Bardap-26 and Akacid Forte was mixed in a 50:50 ratio, and the applied concentrations can be seen from Table 5. The methods and solutions were otherwise as described in example 4A herein.

The subject of series [2] is Staphylococcus aureus, ATCC 6538. The series is described as above. It is filed as cell-based. The settings on record: 9 minutes at 30° C.; for Reduction obtained in Staphylococcus Aureus: pH 6-6.5, factor of reduction in CFU.
Text: as §1, §2, §3, §4, §5, §6, §7, §8, §9, §10, §11

Series [3] can be described thus: Critical micelle concentration by Sudan Black B absorbance at 600 nm. It is filed as physicochemical. The settings on record: data not shown. The protocol: The critical micelle concentration is measured using Sudan Black B dissolved in the test solutions at different concentrations. Sudan Black B is dissolvable in micelles, only. A difference in the absorbance measured is thus a valid measure of the critical micelle concentration in the test solutions. Absorbance was measured using a Shimadzu UV-1800 spectrofotometer and the absorbance is measured at 600 nm. Dilutions were made in water and Sudan Black B by adding first water, then Sudan Black B and at last the test solutions to 4 ml cuvettes. The dilutions were then stirred and left for at least 6 hours at room temperature. Then the absorbance was measured.

Series [4] relates to Candida albicans, ATCC 2091. In words: Biocidal effect, dosage response and synergy (reduction in CFU after exposure to biocide). It is filed as cell-based. The settings on record: 9 minutes at 30° C.; for Reduction obtained in Candida Albicans: pH 6-6.5, factor of reduction in CFU.
Text: as §1, §2
Candida albicans was cultivated on malt extract agar (MEA) for 24 h at 37° C. before use. Then the yeast cells were harvested in 0.9% saline by use of a drigalski spatula. CFU were determined by plating on MEA.
as §4, §5, §6, §7, §8, §9, §10, §11

[5] abbreviates: 120 ppm active (total for mixtures).
The mark [6] stands for this setting: test concentrations 40-700 ppm active.

Where only a bound is given, the exact number is not on record here.

In the case of “N,N-didecyl-N-methyl-poly(oxyethyl) ammonium propionate [Bardap-26]”, the “Reduction obtained in E. coli” value in series [1] (40 ppm active) is on record as ~10^4; in series [1] (80 ppm active) it was ~10^4; in series [1] (setting [5]), 10^4-10^5; in series [1] (160 ppm active), >10^7; in series [1] (200 ppm active), >10^7; in series [1] (700 ppm active), >10^7. In series [1] (setting [6]), the “Effect on E. coli as summarised in words” value is listed as “good effect”. For the same substance, the “Reduction obtained in Staphylococcus Aureus” value in series [2] (40 ppm active) is ~10^2; in series [2] (80 ppm active), 10^2-10^3; in series [2] (setting [5]), 10^2-10^3; in series [2] (160 ppm active), >10^7; in series [2] (200 ppm active) it was >10^7; in series [2] (700 ppm active), >10^7. For the same substance, the “Effect on Staphylococcus Aureus as summarised in words” value in series [2] (setting [6]) is “good effect”. Besides, the CMC in series [3] was 0.7 to 1.0 mmol/L. For the same substance, the “Reduction obtained in Candida Albicans” value was “No reduction” in series [4] (40 ppm active); 10^2-10^3 in series [4] (80 ppm active); ~10^3 in series [4] (setting [5]); ~10^4 in series [4] (160 ppm active); ~10^4 in series [4] (200 ppm active); 10^4-10^5 in series [4] (700 ppm active). Besides, the “Reduction of Candida Albicans” value in series [4] (concentration not given) was 10^4. Also, in series [4] (setting [6]), the “Effect on Candida Albicans as summarised in words” value was “good effect”.
